Assays:
[1] = test system: experimental NEC in newborn mice; experiment: Murine NEC model in NFkB-GFP transgenic mice (histology, mucosal TNF-α RTPCR, NFκB activation); format: in vivo, mouse; conditions: NEC mice
Procedure: FIG. 27A-G. CpG-ODN-HS and CpG-DNA reduce the development of experimental NEC in vivo in newborn mice. Newborn NEC and control mice were injected with CpG-ODN-HS or CpG-DNA. A. Histology (H&E) of terminal ileum of breast fed mouse. B. Histology (H&E) of terminal ileum of mouse after induction of NEC. C. Histology (H&E) of terminal ileum of mouse treated with CpG-DNA, after which conditions which induced NEC were applied. D. Histology (H&E) of terminal ileum of mouse treated with CpG-ODN-HS, after which conditions which induced NEC were applied. E. Histology (H&E) of terminal ileum of breast fed mouse treated with CpG-ODN-HS. F. Histology (H&E) of terminal ileum of breast fed mouse treated with CpG-DNA. G. Severity of NEC in newborn mice as scored by a blinded pediatric pathologist. *p<0.05 vs. NEC in saline-injected mice.
FIG. 28. CpG-ODN-HS and CpG-DNA reduce the expression of mucosal TNF-α in NEC newborn mice in vivo.
FIG. 29A-D. Confocal microscopy showing the extent of NFkB activation in mice with NEC in the absence or presence of CpG-ODN-HS. CpG-ODN-HS reduces the level of NFkB activation in NEC newborn mice in vivo. The mice express NFkB-GFP, and sections were stained with anti-GFP antibody (red; arrow).
The effect of the TLR9 agonist CpG-ODN 5′ […] 3′ (SEQ ID NO:10; referred to herein as CpG-ODN-HS) on the mediator of activated TLR4, NFκB, was examined in a murine NEC model (previously described, above). The effect of CpG-ODN-HS on inflammation in the NEC murine model was also examined as a measured by TNF-α expression, which is an index of inflammation.
Materials and methods. Phosphorothioated CpG-ODN-HS and oligodeoxynucleotide (ODN) 1826 ([…]) (SEQ ID NO:6; referred to herein as CpG-DNA) were synthesized by the University of Pittsburgh DNA synthesis facility. ODNs were confirmed to be endotoxin-free by Limulus assay. NFkB-GFP antibody was obtained from Santa Cruz and Abcam. The extent of nuclear translocation was determined in an adaptation of the methodology of Ding and colleagues. In brief, a threshold limit was set based upon the emission signal for the nuclear stain DRAQ5, which therefore defined a nuclear region of interest (ROI). To define a corresponding cytoplasmic region of interest, a circular region 12 pixels beyond the nucleus was stenciled upon each cell. The average integrated pixel intensity pertaining to the corresponding NFkB emission within the cytoplasmic and nuclear regions was then determined for more than 200 cells per treatment group in at least four experiments per group, using MetaMorph software version 6.1 (Molecular Devices Corporation, Downingtown, Pa.).
Mucosal TNF-α expression was measured using quantitative real-time PCR (RTPCR). Quantitative real-time PCR in cultured enterocytes and intestinal tissue using the BioRad iCycler (Biorad, Hercules, CA) was performed as in (Leaphart, C. L., J. Cavallo, S. C. Gribar, S. Cetin, J. Li, M. F. Branca, T. D. Dubowski, C. P. Sodhi, and D. J. Hackam. 2007. A Critical Role for TLR4 in the Pathogenesis of Necrotizing Enterocolitis by Modulating Intestinal Injury and Repair. J Immunology 179:4808-4820). Oligonucleotide primer pairs used for RTPCR were as follows: forward: 5′ […] 3′ (SEQ ID NO:14), reverse: 5′ […] 3′ (SEQ ID NO:15); and forward: 5′ […] 3′ (SEQ ID NO:16), reverse: 5′ […] 3′ (SEQ ID NO:17). Gene expression was normalized to β-actin expression. Where indicated, gene expression was assessed on 2.5% agarose gels using ethidium bromide staining. […]

enterocytes = experiment: LPS-mediated NF-κB (p65) translocation in enterocytes, with and without TLR9 siRNA knock-down; format: cell-based
Procedure: FIG. 7A-E. LPS-mediated translocation in enterocytes which are either (A) untreated or treated with (B) 50 μg/ml LPS; (C) 50 μg/ml LPS+10 μM CpG; or (D) 10 μM CpG. (E) Bar graph showing the nuclear:cytoplasmic ratio for NF-κB in (A)-(D).
FIG. 9A-F. CpG-DNA reduces TLR4 signaling through TLR9 in enterocytes. (A) Western blot showing the amounts of TLR9 protein relative to actin in untreated enterocytes (Ctrl) or in enterocytes treated with 0.084 μM non-specific siRNA or siRNA specific for TLR9. (B)-(E) are immunofluorescence studies showing the relative amounts of p65 in the enterocyte nucleus versus its cytoplasm, when either (B) untreated or treated with (C) 50 μg/ml LPS; (D) 50 μg/ml LPS+10 μM CpG (in the context of normal TLR9 levels) or (E) 50 μg/ml LPS+10 μM CpG (in the context of TLR9 knockdown by siRNA). (E) Bar graph showing the results of (B)-(E).
A second series of experiments was designed to study the consequences of the TLR4 activator LPS and the TLR9 activator CpG on the mediator of activated TLR4, NFκB. As shown by comparing FIGS. 7A and B, LPS causes NFκB to translocate into the nucleus. The extent of translocation caused by LPS is decreased by co-exposure to CpG (FIGS. 7C and E).
All the foregoing three series of experiments have shown that CpG (an activator of TLR9) inhibited the effects of TLR4 activation, including its role in promoting inflammation. […]

In the case of 5′-TCCATGACGTTCCTGACGTT-3′ [CpG-DNA], the “level of expression of mucosal TNF-α in terminal ileum” value ([1]; RTPCR) is reported as “reduced”, the “NEC pathology (histology of terminal ileum)” value ([1]; treated vs untreated) is reported as “inhibition of the NEC pathology” and the “attenuating effect of CpG on translocation of NFκB subunit p65” value (enterocytes; enterocytes with TLR9 expression suppressed by siRNA, 50 μg/ml LPS + 10 μM CpG) is reported as “virtually eliminated”. The “extent of NFκB translocation into the nucleus caused by LPS” value (enterocytes; enterocytes, 50 μg/ml LPS + 10 μM CpG vs LPS alone) was “decreased”.
